In US9499550B2 (BRISTOL-MYERS SQUIBB COMPANY, priority 2012, dated 2016):
Read-outs that look alike come from different tables or passages of the source.

What was measured:
[1] = tested on: HCV genotype 1a (H77 strain) replicon in HUH-7 cells; test: HCV replicon luciferase reporter assay, genotype 1a; type: cell-based; settings: Hepatitis C virus, Huh-7, 72 h, HCV genotype 1a replicon luciferase assay, 3 days incubation, range class, read-out: LE_1a (EC50, range)
Outline: (§1)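 Replicon inhibition for both genotypes was measured as Renilla luciferase signal (EnduRen, 7.5 μM final, 2 h) after 3-day, 37° C exposure of replicon-bearing HUH-7 cells in 4% FCS DMEM, 0.5% DMSO. The 1b construct carries S1179I; the 1a H77 construct carries P1496L and S2204I. Twenty-point, 3-fold dilutions were fitted four-parametrically for EC50, and CC50 was taken from multiplexed Cell Titer-Blue.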

[2] = tested on: HCV genotype 1b (Con1) replicon in HUH-7 cells; test: HCV replicon luciferase reporter assay, genotype 1b; type: cell-based; settings: Hepatitis C virus, Huh-7, 72 h, HCV genotype 1b replicon luciferase assay, 3 days incubation, range class, read-out: LE_1b (EC50, range)
Outline: as §1

Compound	EC50 [1]	EC50 [2]	EC50 ([1]; GETYPE1A)	EC50 ([2]; GETYPE1B)
CC[C@@H]1C[C@H](C)CC/C=C\[C@@H]2C[C@@]2(C(=O)NS(=O)(=O)C2CC2)NC(=O)[C@@H]2C[C@@H](Oc3nccc4c(OC)cccc34)CN2C(=O)[C@H]1NC(=O)OC(C)(C)C [Compound 3026, tert-butyl ((2R,6S,7R,9R,13aS,14aR,16aS,Z)-14a-((cyclopropylsulfonyl)carbamoyl)-7-ethyl-2-((5-methoxyisoquinolin-1-yl)oxy)-9-methyl-5,16-dioxo-1,2,3,5,6,7,8,9,10,11,13a,14,14a,15,16,16a-hexadecahydrocyclopropa[e]pyrrolo[1,2-a][1,4]diazacyclopentadecin-6-yl)carbamate]	< 5.46 nM	< 5.46 nM	–	–
CC[C@@H]1C[C@@H](C)CC/C=C\[C@@H]2C[C@@]2(C(=O)NS(=O)(=O)C2(C)CC2)NC(=O)[C@@H]2C[C@@H](Oc3nccc4c(OC)cccc34)CN2C(=O)[C@H]1NC(=O)OC(C)(C)C(F)(F)F [Compound 3027, 1,1,1-trifluoro-2-methylpropan-2-yl((2R,6S,7R,9S,13aS,14aR,16aS,Z)-7-ethyl-2-((5-methoxyisoquinolin-1-yl)oxy)-9-methyl-14a-(((1-methylcyclopropyl)sulfonyl)carbamoyl)-5,16-dioxo-1,2,3,5,6,7,8,9,10,11,13a,14,14a,15,16,16a-hexadecahydrocyclopropa[e]pyrrolo[1,2-a][1,4]diazacyclopentadecin-6-yl)carbamate]	4.82 to 103 nM	4.82 to 103 nM	–	–
CC[C@@H]1C[C@H](C)CC/C=C\[C@@H]2C[C@@]2(C(=O)NS(=O)(=O)C2(C)CC2)NC(=O)[C@@H]2C[C@@H](Oc3nccc4c(OC)cccc34)CN2C(=O)[C@H]1NC(=O)OC(C)(C)C(F)(F)F [Compound 3028, 1,1,1-trifluoro-2-methylpropan-2-yl((2R,6S,7R,9R,13aS,14aR,16aS,Z)-7-ethyl-2-((5-methoxyisoquinolin-1-yl)oxy)-9-methyl-14a-(((1-methylcyclopropyl)sulfonyl)carbamoyl)-5,16-dioxo-1,2,3,5,6,7,8,9,10,11,13a,14,14a,15,16,16a-hexadecahydrocyclopropa[e]pyrrolo[1,2-a][1,4]diazacyclopentadecin-6-yl)carbamate]	< 5.46 nM	< 5.46 nM	–	–
CC[C@@H]1C[C@@H](C)CC/C=C\[C@@H]2C[C@@]2(C(=O)NS(=O)(=O)C2CC2)NC(=O)[C@@H]2C[C@@H](Oc3nccc4c(OC)cccc34)CN2C(=O)[C@H]1NC(=O)NC(C)(C)C [Compound 3029, (2R,6S,7R,9S,13aS,14aR,16aS,Z)-6-(3-(tert-butyl)ureido)-N-(cyclopropylsulfonyl)-7-ethyl-2-((5-methoxyisoquinolin-1-yl)oxy)-9-methyl-5,16-dioxo-1,2,3,5,6,7,8,9,10,11,13a,14,14a,15,16,16a-hexadecahydrocyclopropa[e]pyrrolo[1,2-a][1,4]diazacyclopentadecine-14a-carboxamide]	4.82 to 103 nM	4.82 to 103 nM	–	–
CC[C@@H]1C[C@H](C)CC/C=C\[C@@H]2C[C@@]2(C(=O)NS(=O)(=O)C2CC2)NC(=O)[C@@H]2C[C@@H](Oc3nccc4c(OC)cccc34)CN2C(=O)[C@H]1NC(=O)NC(C)(C)C [Compound 3030, (2R,6S,7R,9R,13aS,14aR,16aS,Z)-6-(3-(tert-butyl)ureido)-N-(cyclopropylsulfonyl)-7-ethyl-2-((5-methoxyisoquinolin-1-yl)oxy)-9-methyl-5,16-dioxo-1,2,3,5,6,7,8,9,10,11,13a,14,14a,15,16,16a-hexadecahydrocyclopropa[e]pyrrolo[1,2-a][1,4]diazacyclopentadecine-14a-carboxamide]	< 5.46 nM	< 5.46 nM	–	–
CC[C@@H]1C[C@@H](C)CC/C=C\[C@@H]2C[C@@]2(C(=O)NS(=O)(=O)C2CC2)NC(=O)[C@@H]2C[C@@H](Oc3nccc4c(OC)cccc34)CN2C(=O)[C@H]1NC(=O)OC(C)(C)C(F)(F)F [Compound 3031, 1,1,1-trifluoro-2-methylpropan-2-yl((2R,6S,7R,9S,13aS,14aR,16aS,Z)-14a-((cyclopropylsulfonyl)carbamoyl)-7-ethyl-2-((5-methoxyisoquinolin-1-yl)oxy)-9-methyl-5,16-dioxo-1,2,3,5,6,7,8,9,10,11,13a,14,14a,15,16,16a-hexadecahydrocyclopropa[e]pyrrolo[1,2-a][1,4]diazacyclopentadecin-6-yl)carbamate]	4.82 to 103 nM	4.82 to 103 nM	–	–
CC[C@@H]1C[C@H](C)CC/C=C\[C@@H]2C[C@@]2(C(=O)NS(=O)(=O)C2CC2)NC(=O)[C@@H]2C[C@@H](Oc3nccc4c(OC)cccc34)CN2C(=O)[C@H]1NC(=O)OC(C)(C)C(F)(F)F [Compound 3032, 1,1,1-trifluoro-2-methylpropan-2-yl((2R,6S,7R,9R,13aS,14aR,16aS,Z)-14a-((cyclopropylsulfonyl)carbamoyl)-7-ethyl-2-((5-methoxyisoquinolin-1-yl)oxy)-9-methyl-5,16-dioxo-1,2,3,5,6,7,8,9,10,11,13a,14,14a,15,16,16a-hexadecahydrocyclopropa[e]pyrrolo[1,2-a][1,4]diazacyclopentadecin-6-yl)carbamate]	< 5.46 nM	< 5.46 nM	–	–
CC[C@@H]1C[C@@H](C)CC/C=C\[C@@H]2C[C@@]2(C(=O)NS(=O)(=O)C2(C)CC2)NC(=O)[C@@H]2C[C@@H](Oc3nccc4c(OC)cccc34)CN2C(=O)[C@H]1NC(=O)NC(C)(C)C [Compound 3033, (2R,6S,7R,9S,13aS,14aR,16aS,Z)-6-(3-(tert-butyl)ureido)-7-ethyl-2-((5-methoxyisoquinolin-1-yl)oxy)-9-methyl-N-((1-methylcyclopropyl)sulfonyl)-5,16-dioxo-1,2,3,5,6,7,8,9,10,11,13a,14,14a,15,16,16a-hexadecahydrocyclopropa[e]pyrrolo[1,2-a][1,4]diazacyclopentadecine-14a-carboxamide]	4.82 to 103 nM	4.82 to 103 nM	–	–
CC[C@@H]1C[C@H](C)CC/C=C\[C@@H]2C[C@@]2(C(=O)NS(=O)(=O)C2(C)CC2)NC(=O)[C@@H]2C[C@@H](Oc3nccc4c(OC)cccc34)CN2C(=O)[C@H]1NC(=O)NC(C)(C)C [Compound 3034, (2R,6S,7R,9R,13aS,14aR,16aS,Z)-6-(3-(tert-butyl)ureido)-7-ethyl-2-((5-methoxyisoquinolin-1-yl)oxy)-9-methyl-N-((1-methylcyclopropyl)sulfonyl)-5,16-dioxo-1,2,3,5,6,7,8,9,10,11,13a,14,14a,15,16,16a-hexadecahydrocyclopropa[e]pyrrolo[1,2-a][1,4]diazacyclopentadecine-14a-carboxamide]	< 5.46 nM	< 5.46 nM	–	–
COc1cccc2c(O[C@@H]3C[C@H]4C(=O)N[C@]5(C(=O)NS(=O)(=O)C6(C)CC6)C[C@H]5/C=C\CC[C@H](C)C[C@@H](C)[C@H](NC(=O)OC(C)(C)C)C(=O)N4C3)nccc12 [Compound 3035, tert-butyl ((2R,6S,7R,9S,13aS,14aR,16aS,Z)-2-((5-methoxyisoquinolin-1-yl)oxy)-7,9-dimethyl-14a-(((1-methylcyclopropyl)sulfonyl)carbamoyl)-5,16-dioxo-1,2,3,5,6,7,8,9,10,11,13a,14,14a,15,16,16a-hexadecahydrocyclopropa[e]pyrrolo[1,2-a][1,4]diazacyclopentadecin-6-yl)carbamate]	4.82 to 103 nM	< 5.46 nM	–	–
COc1cccc2c(O[C@@H]3C[C@H]4C(=O)N[C@]5(C(=O)NS(=O)(=O)C6(C)CC6)C[C@H]5/C=C\CC[C@@H](C)C[C@@H](C)[C@H](NC(=O)OC(C)(C)C)C(=O)N4C3)nccc12 [Compound 3036, tert-butyl ((2R,6S,7R,9R,13aS,14aR,16aS,Z)-2-((5-methoxyisoquinolin-1-yl)oxy)-7,9-dimethyl-14a-(((1-methylcyclopropyl)sulfonyl)carbamoyl)-5,16-dioxo-1,2,3,5,6,7,8,9,10,11,13a,14,14a,15,16,16a-hexadecahydrocyclopropa[e]pyrrolo[1,2-a][1,4]diazacyclopentadecin-6-yl)carbamate]	< 5.46 nM	< 5.46 nM	–	–
COc1cccc2c(O[C@@H]3C[C@H]4C(=O)N[C@]5(C(=O)NS(=O)(=O)C6(C)CC6)C[C@H]5/C=C\CC[C@H](C)C[C@@H](C)[C@H](NC(=O)OC(C)(C)C(F)(F)F)C(=O)N4C3)nccc12 [Compound 3037, 1,1,1-trifluoro-2-methylpropan-2-yl((2R,6S,7R,9S,13aS,14aR,16aS,Z)-2-((5-methoxyisoquinolin-1-yl)oxy)-7,9-dimethyl-14a-(((1-methylcyclopropyl)sulfonyl)carbamoyl)-5,16-dioxo-1,2,3,5,6,7,8,9,10,11,13a,14,14a,15,16,16a-hexadecahydrocyclopropa[e]pyrrolo[1,2-a][1,4]diazacyclopentadecin-6-yl)carbamate]	4.82 to 103 nM	< 5.46 nM	–	–
COc1cccc2c(O[C@@H]3C[C@H]4C(=O)N[C@]5(C(=O)NS(=O)(=O)C6(CF)CC6)C[C@H]5/C=C\CC[C@@H](C)C[C@@H](C)[C@H](NC(=O)OC(C)(C)C)C(=O)N4C3)nccc12 [Compound 3039, tert-butyl ((2R,6S,7R,9R,13aS,14aR,16aS,Z)-14a-(((1-(fluoromethyl)cyclopropyl)sulfonyl)carbamoyl)-2-((5-methoxyisoquinolin-1-yl)oxy)-7,9-dimethyl-5,16-dioxo-1,2,3,5,6,7,8,9,10,11,13a,14,14a,15,16,16a-hexadecahydrocyclopropa[e]pyrrolo[1,2-a][1,4]diazacyclopentadecin-6-yl)carbamate]	< 5.46 nM	< 5.46 nM	–	–
COc1cccc2c(O[C@@H]3C[C@H]4C(=O)N[C@]5(C(=O)NS(=O)(=O)C6(CF)CC6)C[C@H]5/C=C\CC[C@@H](C)C[C@@H](C)[C@H](NC(=O)OC(C)(C)C(F)(F)F)C(=O)N4C3)nccc12 [Compound 3040]	–	–	< 5.46 nM	< 5.46 nM
